Test results published in ChEMBL document CHEMBL1909046, “DrugMatrix in vitro pharmacology data”.

Columns and labels:
[1] = molecular target: T1, Amine oxidase [flavin-containing] A (Homo sapiens, UniProt P21397); experiment: DRUGMATRIX: Monoamine Oxidase MAO-A enzyme inhibition (substrate: Kynuramine); design: species or system BTI-TN-5B1-4; conditions: bti-tn-5b1-4; Not Active = under 50% inhibition at 10 µM
T1 sequence (P21397 whole entry): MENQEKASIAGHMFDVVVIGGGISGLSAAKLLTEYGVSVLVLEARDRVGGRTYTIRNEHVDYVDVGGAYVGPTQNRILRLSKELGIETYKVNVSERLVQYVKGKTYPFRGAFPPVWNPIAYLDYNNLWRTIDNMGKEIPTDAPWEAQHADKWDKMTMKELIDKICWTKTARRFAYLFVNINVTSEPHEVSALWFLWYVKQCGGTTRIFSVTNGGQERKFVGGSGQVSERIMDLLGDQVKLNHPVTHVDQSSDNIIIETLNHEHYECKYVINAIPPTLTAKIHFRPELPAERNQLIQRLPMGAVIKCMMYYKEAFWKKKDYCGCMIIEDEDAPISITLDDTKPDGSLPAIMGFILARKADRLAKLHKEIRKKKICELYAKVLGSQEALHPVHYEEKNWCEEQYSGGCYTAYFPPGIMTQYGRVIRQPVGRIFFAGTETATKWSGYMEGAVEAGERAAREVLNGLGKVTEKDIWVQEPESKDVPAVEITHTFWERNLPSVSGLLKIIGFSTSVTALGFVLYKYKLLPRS

[2] = DRUGMATRIX: Tumor Necrosis Factor (TNF), Non-Selective radioligand binding (ligand: [125I] TNF-alpha); assay type: cell membranes, Membrane; conditions: u-937; Not Active = under 50% inhibition at 10 µM
[3] = molecular target: T2, 5-hydroxytryptamine receptor 1A (Rattus norvegicus, UniProt P19327); assay type: cell membranes, CHO-K1, Membrane; conditions: for Ki: read-out: Ki; on all read-outs here: in other assays of this panel Not Active means under 50% inhibition at 10 µM
T2 sequence (P19327 whole entry): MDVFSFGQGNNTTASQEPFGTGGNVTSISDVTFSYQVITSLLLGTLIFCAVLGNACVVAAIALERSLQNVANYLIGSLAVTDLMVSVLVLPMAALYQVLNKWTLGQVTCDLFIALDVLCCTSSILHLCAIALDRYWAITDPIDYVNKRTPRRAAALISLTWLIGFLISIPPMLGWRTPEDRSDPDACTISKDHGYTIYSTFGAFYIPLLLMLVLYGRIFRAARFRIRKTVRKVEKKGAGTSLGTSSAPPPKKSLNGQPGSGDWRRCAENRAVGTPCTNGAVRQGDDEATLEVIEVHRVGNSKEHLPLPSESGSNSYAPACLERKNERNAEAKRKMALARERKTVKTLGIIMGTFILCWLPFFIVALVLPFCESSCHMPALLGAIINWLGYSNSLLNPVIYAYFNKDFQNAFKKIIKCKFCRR

[4] = molecular target: Protein kinase C alpha type (Homo sapiens, UniProt P17252); assay type: cell-based; conditions: sf9;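 further: inhibition of PKCalpha kinase activity measured in an enzyme assay with histone as the phosphorylation substrate; in other assays of this panel Not Active means under 50% inhibition at 10 µM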
[5] = DRUGMATRIX: Calcium Channel Type L, Phenylalkylamine radioligand binding (ligand: [3H] (-)-Desmethoxyverapamil (D-888)); assay type: cell membranes, Rattus norvegicus, Wistar, Brain, Membrane; conditions: Not Active = under 50% inhibition at 10 µM
[6] = molecular target: 5-hydroxytryptamine receptor 4 (Cavia porcellus, UniProt O70528); assay type: cell membranes, Dunkin-Hartley, Striatum, Membrane; conditions: for Ki: read-out: Ki; on all read-outs here: in other assays of this panel Not Active means under 50% inhibition at 10 µM
[7] = molecular target: Cytochrome P450 2E1 (Homo sapiens, UniProt P05181); conditions: bti-tn-5b1-4; further: in other assays of this panel Not Active means under 50% inhibition at 10 µM
Sequence of Cytochrome P450 2E1 (P05181 whole entry): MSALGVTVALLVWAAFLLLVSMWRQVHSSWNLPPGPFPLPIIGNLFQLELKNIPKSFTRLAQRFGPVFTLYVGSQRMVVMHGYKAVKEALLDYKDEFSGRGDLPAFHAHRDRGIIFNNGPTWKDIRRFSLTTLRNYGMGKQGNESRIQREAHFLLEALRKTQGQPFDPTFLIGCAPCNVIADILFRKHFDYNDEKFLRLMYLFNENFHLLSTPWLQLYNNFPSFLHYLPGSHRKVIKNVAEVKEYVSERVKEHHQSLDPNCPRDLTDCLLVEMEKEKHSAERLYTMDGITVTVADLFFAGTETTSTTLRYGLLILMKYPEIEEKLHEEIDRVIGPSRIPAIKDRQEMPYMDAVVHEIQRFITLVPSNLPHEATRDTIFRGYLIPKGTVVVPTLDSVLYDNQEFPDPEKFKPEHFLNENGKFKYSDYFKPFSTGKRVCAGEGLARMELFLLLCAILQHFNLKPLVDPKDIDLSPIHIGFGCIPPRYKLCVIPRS

Sequence of 5-hydroxytryptamine receptor 4 (O70528 whole entry): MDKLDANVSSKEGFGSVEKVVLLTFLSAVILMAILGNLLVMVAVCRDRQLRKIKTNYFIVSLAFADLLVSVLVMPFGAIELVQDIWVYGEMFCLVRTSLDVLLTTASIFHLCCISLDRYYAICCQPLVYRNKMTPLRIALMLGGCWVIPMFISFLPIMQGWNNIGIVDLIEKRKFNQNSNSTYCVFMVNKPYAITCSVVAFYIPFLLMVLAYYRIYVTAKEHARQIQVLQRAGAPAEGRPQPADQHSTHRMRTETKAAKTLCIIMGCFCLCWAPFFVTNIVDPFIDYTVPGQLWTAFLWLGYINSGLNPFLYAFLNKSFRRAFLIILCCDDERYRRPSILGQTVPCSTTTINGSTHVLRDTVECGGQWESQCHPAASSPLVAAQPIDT

Compound | IC50 [1] | IC50 [2] | Ki [2] | IC50 ([3]; cho-k1) | IC50 [4] | IC50 [5] | Ki [5] | IC50 [6] | IC50 [7] | Ki [7] | IC50 ([3]; read-out: IC50) [nM] | Ki [3] [nM] | IC50 ([6]; read-out: IC50) [µM] | Ki [6] [nM] | IC50 ([5]; read-out: IC50) [µM] | Ki ([5]; read-out: Ki) [µM]
C[C@H]1O[C@@H](O[C@H]2[C@@H](O)C[C@H](O[C@H]3[C@@H](O)C[C@H](O[C@H]4CC[C@@]5(C)[C@H](CC[C@@H]6[C@@H]5C[C@@H](O)[C@]5(C)[C@@H](C7=CC(=O)OC7)CC[C@]65O)C4)O[C@@H]3C)O[C@@H]2C)C[C@H](O)[C@@H]1O [DIGOXIN] | Not Active | Not Active | Not Active | Not Active | Not Active | Not Active | Not Active | Not Active | Not Active | Not Active | – | – | – | – | – | –
CC(C)[C@@]1(NC(=O)[C@@H]2C[C@@H]3c4cccc5[nH]cc(c45)C[C@H]3N(C)C2)O[C@@]2(O)[C@@H]3CCCN3C(=O)[C@H](Cc3ccccc3)N2C1=O.CS(=O)(=O)O [DIHYDROERGOCRISTINE MESYLATE] | Not Active | Not Active | Not Active | – | Not Active | Not Active | Not Active | – | Not Active | Not Active | 0.722 | 0.412 | 4.91 | 819 | – | –
CC(=O)O[C@@]12CO[C@@H]1C[C@H](O)[C@@]1(C)C(=O)[C@H](O)C3=C(C)[C@@H](OC(=O)[C@H](O)[C@@H](NC(=O)OC(C)(C)C)c4ccccc4)C[C@@](O)([C@@H](OC(=O)c4ccccc4)[C@H]21)C3(C)C.O.O.O [DOCETAXEL] | Not Active | Not Active | Not Active | Not Active | Not Active | Not Active | Not Active | Not Active | Not Active | Not Active | – | – | – | – | – | –
COc1cc2nc(N3CCN(C(=O)C4COc5ccccc5O4)CC3)nc(N)c2cc1OC (configuration not stated) [DOXAZOSIN] | Not Active | Not Active | Not Active | Not Active | Not Active | Not Active | Not Active | – | Not Active | Not Active | – | – | 0.764 | 127 | – | –
C[C@H]1c2cccc(O)c2C(=O)C2=C(O)[C@]3(O)C(=O)C(C(N)=O)=C(O)[C@@H](N(C)C)[C@@H]3[C@@H](O)[C@@H]21.O [DOXYCYCLINE] | Not Active | Not Active | Not Active | Not Active | Not Active | Not Active | Not Active | Not Active | Not Active | Not Active | – | – | – | – | – | –
O=C(CCCN1CC=C(n2c(=O)[nH]c3ccccc32)CC1)c1ccc(F)cc1 [DROPERIDOL] | Not Active | Not Active | Not Active | – | Not Active | – | – | – | Not Active | Not Active | 242 | 138 | 3.79 | 632 | 4.17 | 4.05
CC(C)[C@H]1C(=O)N2CCC[C@H]2[C@]2(O)O[C@](NC(=O)[C@@H]3C=C4c5cccc6[nH]cc(c56)C[C@H]4N(C)C3)(C(C)C)C(=O)N12 [ERGOCORNINE] | Not Active | Not Active | Not Active | – | Not Active | Not Active | Not Active | Not Active | Not Active | Not Active | 3.11 | 1.78 | – | – | – | –
OC(Cn1cncn1)(Cn1cncn1)c1ccc(F)cc1F [FLUCONAZOLE] | Not Active | Not Active | Not Active | Not Active | Not Active | Not Active | Not Active | Not Active | Not Active | Not Active | – | – | – | – | – | –
CC(C)C(=O)Nc1ccc([N+](=O)[O-])c(C(F)(F)F)c1 [FLUTAMIDE] | Not Active | Not Active | Not Active | Not Active | Not Active | Not Active | Not Active | – | Not Active | Not Active | – | – | 13.5 | 2260 | – | –
CC1(C)O[C@@H]2C[C@H]3[C@@H]4CCC5=CC(=O)CC[C@]5(C)[C@@]4(F)[C@@H](O)C[C@]3(C)[C@]2(C(=O)CCl)O1 [HALCINONIDE] | Not Active | Not Active | Not Active | Not Active | Not Active | Not Active | Not Active | Not Active | Not Active | Not Active | – | – | – | – | – | –
O=c1[nH]c(=O)n([C@H]2C[C@H](O)[C@@H](CO)O2)cc1I [IDOXURIDINE] | Not Active | Not Active | Not Active | Not Active | Not Active | Not Active | Not Active | Not Active | Not Active | Not Active | – | – | – | – | – | –
CC1Cc2ccccc2N1NC(=O)c1ccc(Cl)c(S(N)(=O)=O)c1 (configuration not stated) [INDAPAMIDE] | Not Active | Not Active | Not Active | Not Active | Not Active | Not Active | Not Active | Not Active | Not Active | Not Active | – | – | – | – | – | –
Nc1nc(N)nc(-c2cc(Cl)ccc2Cl)n1.O=C(O)/C=C\C(=O)O [IRSOGLADINE MALEATE] | Not Active | Not Active | Not Active | Not Active | Not Active | Not Active | Not Active | Not Active | Not Active | Not Active | – | – | – | – | – | –
CCC(C)n1ncn(-c2ccc(N3CCN(c4ccc(OCC5COC(Cn6cncn6)(c6ccc(Cl)cc6Cl)O5)cc4)CC3)cc2)c1=O (configuration not stated) [ITRACONAZOLE] | Not Active | Not Active | Not Active | Not Active | Not Active | Not Active | Not Active | Not Active | Not Active | Not Active | – | – | – | – | – | –
CCCCN1CCCC[C@H]1C(=O)Nc1c(C)cccc1C [LEVOBUPIVACAINE] | Not Active | Not Active | Not Active | Not Active | Not Active | Not Active | Not Active | Not Active | Not Active | Not Active | – | – | – | – | – | –
CCCCc1nc(Cl)c(CO)n1Cc1ccc(-c2ccccc2-c2nnn[nH]2)cc1 [LOSARTAN] | Not Active | Not Active | Not Active | Not Active | Not Active | Not Active | Not Active | Not Active | Not Active | Not Active | – | – | – | – | – | –
Sc1ncnc2nc[nH]c12 [MERCAPTOPURINE ANHYDROUS] | Not Active | Not Active | Not Active | Not Active | Not Active | Not Active | Not Active | Not Active | Not Active | Not Active | – | – | – | – | – | –
C[C@](N)(Cc1ccc(O)c(O)c1)C(=O)O [METHYLDOPA] | Not Active | Not Active | Not Active | Not Active | Not Active | Not Active | Not Active | Not Active | Not Active | Not Active | – | – | – | – | – | –
C[C@]12CCC(=O)C=C1CC[C@@H]1[C@@H]2CC[C@@]2(C)[C@H]1CC[C@]2(C)O [METHYLTESTOSTERONE] | Not Active | Not Active | Not Active | Not Active | Not Active | Not Active | Not Active | Not Active | Not Active | Not Active | – | – | – | – | – | –
